Experimental data published in US7758903B2, “Cytokine modulators and related methods of use” (Access Business Group International LLC, priority 2003, dated 2010).
Converted amounts (≈) assume the structure as drawn. Read-outs that look alike come from different tables or passages of the source.

Experiments:
[1] = test system: IL-1 secretion, THP-1 cells; assay: LPS-stimulated IL-1 secretion by THP-1 cells, IL-1 ELISA of supernatant; format: cell-based, human; details: IL-1 in supernatant, THP-1 cells pre-treated 4 hours, LPS 100 nanograms/ml 16 hours; for EC50: Homo sapiens, read-out: EC 50 in ug/ml (50% Effective Dose in vitro)
Protocol: For this evaluation, white blood cells were dosed with varying concentrations of the ingredients. An inflammatory stimulus, lipopolysaccharide (LPS), was then added to the ingredient-plus-cell culture, as well as untreated control samples of white blood cells. The production of the IL-1 cytokine of both the ingredient-treated cells and the untreated cells was compared to extrapolate the concentration of the ingredient that causes a 50% change in the concentration of IL-1 produced by the cells.
To perform the evaluation of inhibiting interleukin synthesis of this example, human white blood cells, specifically THP-1 cells obtained from ATCC of Manassas, Va., were grown under conditions recommended by ATCC in a humidified 37° C. incubator, which was supplied with 5% carbon dioxide. To test the IL-1 inhibitory potential of various compounds, multiple groups of THP-1 cells were plated in 96 well plates. […] With these cell samples plated, they were then dosed.
In dosing, each of the ingredients was administered to the plated THP-1 cells in varying doses, specifically, 100 ug/ml, 10 ug/ml, 1 ug/ml and 0 ug/ml. […] The THP-1 cells, now dosed with the desired ingredients, were returned to the incubator and incubated for 4 hours under the same conditions.
Thereafter, a known inflammatory stimulator, lipopolysaccharide (LPS) was added to each well plate to a final concentration of 100 nanograms/ml. The LPS treated cultures were returned to the incubator for an additional 16 hours. […]
Thereafter, the liquids from each of the wells were removed and the coated plate was washed 3 times in a wash buffer. […] The reaction of the substrate solution (TMB) and the horseradish peroxidase conjugated to the anti-IL-1 antibody produces a colored product with specific spectral absorbance at wavelength of 450 nm.
The calibration standard samples were subjected to the same protocol as the supernatant samples to determine the IL-1 present in those calibration samples. […] The optical density of the standard calibration samples were then plotted to determine a standardized IL-1 absorbance calibration curve.

[2] = test system: IL-1 secretion, THP-1 cells; assay: Synergy or interference of other ingredients with optional primary ingredients in inhibiting LPS-stimulated IL-1 secretion; format: cell-based, human; design: key: a “+” indicates interference or synergy, respectively as shown; a “−” indicates no interference or no synergy
Protocol: Specifically, the release of IL-1 from the THP-1 cells after exposure to lipopolysaccharide (LPS) with or without pre-treatment in varying doses of the other ingredients, or a combination of those other ingredients with optional primary ingredients, was measured to evaluate the effects of the other ingredients on monocyte IL-1α secretion.
The other ingredients tested were: blackberry extract, blueberry extract, cranberry extract, rosemary extract, clove extract and resveratrol.
In Table IV, a “−” indicates no interference or no synergy, and a “+” indicates interference or synergy, respectively as shown.

[3] = test system: IL-1/IL-6 Stimulated CRP Secretion, hepatocytes; assay: IL-1/IL-6 stimulated CRP secretion by primary hepatocytes, CRP ELISA of supernatant; format: cell-based; details: Homo sapiens, Hepatocyte
Protocol: Hepatocytes' response to IL-1 expression levels was evaluated by measuring CRP in the culture supernatant after exposure of the hepatocytes to IL-1 and IL-6 with or without pre-treatment with varying doses of the other ingredients.
The IL-1 response effects were evaluated in hepatocytes by measuring the secretion of CRP when the hepatocytes were exposed to IL-1α and IL-6 with or without pre-treatment with varying doses of the other ingredients. […] Thus, by measuring CRP secreted by the hepatocytes, the degree of cells' response to IL-1 and/or IL-6 is able to be determined.
To perform the evaluation of this example, human primarily isolated hepatocyte cells, obtained from In vitro Technology of Baltimore, Md., were restored under the conditions recommended by In vitro Technology in a humidified 37° C. incubator, which was supplied with 5% carbon dioxide. To test the CRP response potential of various compounds, multiple groups of hepatocytes were plated in 96 well plates. Specifically, 1×10^4 cells were plated in hepatocyte media supplement with 10% fetal bovine serum which were then exposed with varying doses, specifically, 100 ug/ml, 10 ug/ml, 1 ug/ml and 0 ug/ml of test ingredients. […]

O=C(O[C@@H]1Cc2c(O)cc(O)cc2O[C@@H]1c1cc(O)c(O)c(O)c1)c1cc(O)c(O)c(O)c1 [Epigallocatechin gallate]
EC 50 in ug/ml (50% Effective Dose in vitro) [1]: <1 µg/mL

COc1cc(/C=C/C(=O)O)ccc1O [Ferulic acid]
EC50 [1]: 10 µg/mL (≈ 51.5 µM)

CC(C)Oc1ccc2c(=O)c(-c3ccccc3)coc2c1 [Ipriflavone, reference compound]
EC50 [1]: < 1 µg/mL

Oc1ccc(C=Cc2cc(O)cc(O)c2)cc1 [Resveratrol]
Interference +/− ([2]; with Artichoke): −
Synergy +/− ([2]; with Artichoke): −
Interference +/− ([2]; with Nettle Root): −
Synergy +/− ([2]; with Nettle Root): −
Interference +/− ([2]; with Olive Extract): −
Synergy +/− ([2]; with Olive Extract): −
Interference +/− ([2]; with Rosehips): −
Synergy +/− ([2]; with Rosehips): −
EC50 ([3]; IL-1/IL-6 stimulated CRP secretion, hepatocytes, Example 2, read-out: CRP EC 50 in ug/ml (50% Effective Dose in vitro)): 1 to 10 µg/mL (≈ 4.38 to 43.8 µM)
EC50 ([3]; hepatocytes activated via IL-1 and IL-6 (1 ng/ml each), read-out: EC50 of CRP secretion inhibition): 1 to 10 µg/mL (≈ 4.38 to 43.8 µM)
